# Assay results reported in BindingDB's records for doi:10.1021/acschembio.7b00186 (University of Strasburg, 2017).
# What was measured:
# [1] = target: T1, ADP-ribosyl cyclase/cyclic ADP-ribose hydrolase (Blood fluke, UniProt Q32TF5); test: NAD glycohydrolase assay; conditions: pH 7.4; 37 °C
# T1 sequence (Q32TF5 whole entry): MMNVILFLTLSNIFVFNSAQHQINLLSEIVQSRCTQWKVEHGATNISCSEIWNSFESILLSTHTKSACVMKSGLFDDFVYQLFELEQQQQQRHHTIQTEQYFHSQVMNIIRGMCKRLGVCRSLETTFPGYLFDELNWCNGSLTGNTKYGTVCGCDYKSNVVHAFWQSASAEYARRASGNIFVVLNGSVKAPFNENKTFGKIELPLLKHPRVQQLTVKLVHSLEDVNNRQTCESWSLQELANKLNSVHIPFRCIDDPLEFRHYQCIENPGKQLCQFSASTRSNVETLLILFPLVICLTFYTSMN
# Description: (§1) SmNACE activity and inhibition were measured with a sensitive, continuous, fluorometric assay platform that used 1,N6-ethenonicotinamide adenine dinucleotide (εNAD; Sigma-Aldrich, Inc.) as a substrate. This assay consists of measuring the appearance of the fluorescent εADP-ribose reaction product with excitation (λexc) and emission (λem) wavelengths of 310 and 410 nm, respectively, at 37 °C using the thermostatically controlled Spectramax Gemini XPS fluorescence plate reader (100 uL reaction volume; Molecular Devices, LLC) or the thermostatically controlled RF-5301PC spectrofluorophotometer (1 mL reaction volume; Shimadzu Scientific Instruments). The biochemical assay with 100 ug/mL of recombinant SmNACE was carried out in a 10 mM potassium phosphate buffer, at pH 7.4, containing 0.05% (w/v) emulphogen.
# [2] = target: T2, ADP-ribosyl cyclase/cyclic ADP-ribose hydrolase [1-303] (Blood fluke, UniProt Q32TF5); test: NAD glycohydrolase assay; conditions: pH 7.4; 37 °C
# T2 construct: 1-303
# T2 sequence (Q32TF5 whole entry): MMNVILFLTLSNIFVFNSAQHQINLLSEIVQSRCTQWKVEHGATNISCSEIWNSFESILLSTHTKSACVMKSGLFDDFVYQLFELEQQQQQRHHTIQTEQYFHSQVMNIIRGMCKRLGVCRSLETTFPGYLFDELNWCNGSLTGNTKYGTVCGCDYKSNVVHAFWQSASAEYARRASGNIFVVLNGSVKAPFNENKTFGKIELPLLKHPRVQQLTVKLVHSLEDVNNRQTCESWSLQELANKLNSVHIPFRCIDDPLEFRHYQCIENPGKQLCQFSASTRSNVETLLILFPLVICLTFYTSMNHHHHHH
# Description: as §1
SMILES,IC50 [1],IC50 [2]
"Cc1occc1C(=O)N/N=C/c1ccc(O)c(O)c1 [SmNACE inhibitor, 1]",69000 nM,88000 nM
"O=C(Nc1nc(=O)c2ccccc2s1)c1ccco1 [SmNACE inhibitor, 3]",> 20000 nM,2200 nM
"Cc1occc1C(=O)N/N=C/c1cc(Cl)ccc1O [SmNACE inhibitor, 2]",126 nM,33 nM
Cc1ccc2c(c1)C[N]1NC(C3CCOC3C)[O][Zn+]1[O]2 (stereo not drawn) [Zn(II) complex of 2],> 200000 nM,330 nM
